In ChEMBL document CHEMBL4229553, “Design, synthesis and in vitro study of densely functionalized oxindoles as potent α-glucosidase inhibitors” (Bioorg Med Chem, 2018):

Assays:
[1] = Inhibition of yeast alpha-glucosidase using 4-nitrophenyl-alpha-D-glucopyranoside as substrate incubated for 15 mins by spectrophotometric method; set-up: species or system Saccharomyces cerevisiae
Alpha glucosidase = Alpha glucosidase (Homo sapiens, UniProt O43451+P10253+P14410+Q2M2H8); assay: Inhibition of alpha-glucosidase (unknown origin); type: protein assay
BHK-21 = assay: Cytotoxicity against BHK21 cells; type: cell-based, Mesocricetus auratus; settings: hamster
yeast alpha-glucosidase = assay: Ratio of IC50 for BHK21 cells to IC50 for yeast alpha-glucosidase; type: toxicity; settings: hamster, read-out: Ratio IC50
[2] = Inhibition of yeast alpha-glucosidase using nitrophenol-D-glucopyranoside as substrate incubated for 15 mins; set-up: species or system Saccharomyces cerevisiae
Saccharomyces cerevisiae [3] = assay: Competitive inhibition of yeast alpha-glucosidase assessed as apparent Km for substrate at 2 uM using p-nitrophenyl-alpha-D-glucopyranoside as substrate incubated for 30 mins by Lineweaver-Burk plot method
Saccharomyces cerevisiae [4] = assay: Competitive inhibition of yeast alpha-glucosidase assessed as apparent Km for substrate at 4 uM using p-nitrophenyl-alpha-D-glucopyranoside as substrate incubated for 30 mins by Lineweaver-Burk plot method
Saccharomyces cerevisiae [5] = assay: Competitive inhibition of yeast alpha-glucosidase assessed as apparent Km for substrate at 6 uM using p-nitrophenyl-alpha-D-glucopyranoside as substrate incubated for 30 mins by Lineweaver-Burk plot method
Saccharomyces cerevisiae [6] = assay: Competitive inhibition of yeast alpha-glucosidase assessed as apparent Km for substrate at 8 uM using p-nitrophenyl-alpha-D-glucopyranoside as substrate incubated for 30 mins by Lineweaver-Burk plot method
Saccharomyces cerevisiae [7] = assay: Competitive inhibition of yeast alpha-glucosidase assessed as apparent Km for substrate at 10 uM using p-nitrophenyl-alpha-D-glucopyranoside as substrate incubated for 30 mins by Lineweaver-Burk plot method
Saccharomyces cerevisiae [8] = assay: Competitive inhibition of yeast alpha-glucosidase assessed as Vmax for substrate at 2 uM using p-nitrophenyl-alpha-D-glucopyranoside as substrate incubated for 30 mins by Lineweaver-Burk plot method
Saccharomyces cerevisiae [9] = assay: Competitive inhibition of yeast alpha-glucosidase assessed as Vmax for substrate at 4 uM using p-nitrophenyl-alpha-D-glucopyranoside as substrate incubated for 30 mins by Lineweaver-Burk plot method
Saccharomyces cerevisiae [10] = assay: Competitive inhibition of yeast alpha-glucosidase assessed as Vmax for substrate at 6 uM using p-nitrophenyl-alpha-D-glucopyranoside as substrate incubated for 30 mins by Lineweaver-Burk plot method
Saccharomyces cerevisiae [11] = assay: Competitive inhibition of yeast alpha-glucosidase assessed as Vmax for substrate at 8 uM using p-nitrophenyl-alpha-D-glucopyranoside as substrate incubated for 30 mins by Lineweaver-Burk plot method
Saccharomyces cerevisiae [12] = assay: Competitive inhibition of yeast alpha-glucosidase assessed as Vmax for substrate at 10 uM using p-nitrophenyl-alpha-D-glucopyranoside as substrate incubated for 30 mins by Lineweaver-Burk plot method

## Cc1cc2c(c(=O)[nH]1)C(=O)OC2C1(O)C(=O)N(Cc2ccccc2)c2ccc(Br)cc21 (stereo not given)
[1]
  IC50: 42.5 µM

## Nc1ccn(C2OC(CO)[C@@H](O)[C@H]2O)c(=O)n1 (stereo not given in full)
Alpha glucosidase
  IC50: 2.5 µM

## Cc1cc(C(=O)C2C(=O)N(Cc3ccccc3)c3ccc(Br)cc32)c(C(=O)N2CCCCC2)c(=O)[nH]1 (stereo not given)
BHK-21
  Activity: Non-Toxic
[1]
  IC50: 2.21 µM
Yeast alpha-glucosidase
  selectivity ratio: 100

## Cc1cc2c(c(=O)[nH]1)C(=O)O/C2=C1\C(=O)Nc2ccccc21
[1]
  IC50: 47.2 µM

## Cc1cc(C(=O)C2C(=O)N(Cc3ccccc3)c3ccc(F)cc32)c(C(=O)N2CCCCC2)c(=O)[nH]1 (stereo not given)
[1]
  IC50: 8.21 µM

## Cc1cc2c(c(=O)[nH]1)C(=O)OC2C1(O)C(=O)N(C)c2ccccc21 (stereo not given)
[1]
  IC50: 27.6 µM

## Cc1cc2c(c(=O)[nH]1)C(=O)OC2C1(O)C(=O)N(C)c2ccc(Br)cc21 (stereo not given)
[1]
  IC50: 36.1 µM

## Cc1cc(/C(O)=C2/C(=O)Nc3ccc(Br)cc32)c(C(=O)N2CCCCC2)c(=O)[nH]1
BHK-21
  Activity: Non-Toxic
[1]
  IC50: 2.03 µM
Yeast alpha-glucosidase
  selectivity ratio: 100

## Cc1cc(C(=O)C2C(=O)Nc3ccccc32)c(C(=O)N2CCCC2)c(=O)[nH]1 (stereo not given)
BHK-21
  Activity: Non-Toxic
[1]
  IC50: 2.61 µM
Yeast alpha-glucosidase
  selectivity ratio: 100

## Cc1cc(/C(O)=C2/C(=O)N(C)c3ccc(Br)cc32)c(C(=O)N2CCCCC2)c(=O)[nH]1
[1]
  IC50: 6.41 µM

## Cc1cc(C(=O)C2C(=O)N(Cc3ccccc3)c3ccccc32)c(C(=O)N2CCCCC2)c(=O)[nH]1 (stereo not given)
[1]
  IC50: 3.01 µM

## Cc1cc(C(=O)C2C(=O)Nc3ccc([N+](=O)[O-])cc32)c(C(=O)N2CCCCC2)c(=O)[nH]1 (stereo not given)
[1]
  IC50: 4.56 µM

## Cc1cc(C(=O)C2C(=O)N(C)c3ccccc32)c(C(=O)N2CCCCC2)c(=O)[nH]1 (stereo not given)
[1]
  IC50: 10.2 µM

## Cc1cc2c(c(=O)[nH]1)C(=O)O/C2=C/c1cc(Br)cs1
[2]
  IC50: 0.24 µM

## Cc1cc(C(=O)C2C(=O)Nc3ccccc32)c(C(=O)N2CCCCC2)c(=O)[nH]1 (stereo not given)
BHK-21
  Activity: Non-Toxic
[1]
  IC50: 2.67 µM
Yeast alpha-glucosidase
  selectivity ratio: 100

## CCC1NC(CC)C(O)C(O)C1O (stereo not given)
Alpha glucosidase
  IC50: 10 µM

## Cc1cc(C(=O)C2C(=O)Nc3ccc(F)cc32)c(C(=O)N2CCCCC2)c(=O)[nH]1 (stereo not given)
BHK-21
  Activity: Non-Toxic
[1]
  IC50: 0.646 µM
Yeast alpha-glucosidase
  selectivity ratio: 100
Saccharomyces cerevisiae [3]
  Km: 1.64 µM
Saccharomyces cerevisiae [4]
  Km: 1.79 µM
Saccharomyces cerevisiae [5]
  Km: 1.8 µM
Saccharomyces cerevisiae [6]
  Km: 2.54 µM
Saccharomyces cerevisiae [7]
  Km: 2.92 µM
Saccharomyces cerevisiae [8]
  Vmax: 41.6 µM/min
Saccharomyces cerevisiae [9]
  Vmax: 40 µM/min
Saccharomyces cerevisiae [10]
  Vmax: 40 µM/min
Saccharomyces cerevisiae [11]
  Vmax: 41.6 µM/min
Saccharomyces cerevisiae [12]
  Vmax: 40 µM/min

## C[C@H]1O[C@H](O[C@H]2[C@H](O)[C@@H](O)[C@@H](O[C@H]3[C@H](O)[C@@H](O)C(O)O[C@@H]3CO)O[C@@H]2CO)[C@H](O)[C@@H](O)[C@@H]1N[C@H]1C=C(CO)[C@@H](O)[C@H](O)[C@H]1O (stereo not given in full) [ACARBOSE]
[1]
  IC50: 4.02 µM

## Cc1cc2c(c(=O)[nH]1)C(=O)O/C2=C1\C(=O)Nc2ccc(Br)cc21
[1]
  IC50: 33 µM

## Cc1cc(C(=O)C2C(=O)N(C)c3ccc(F)cc32)c(C(=O)N2CCCCC2)c(=O)[nH]1 (stereo not given)
[1]
  IC50: 10 µM
